Data as given in EP2712863B1, “Novel inhibitors of bacterial biofilms and related methods” (Sequoia Sciences, Inc., priority 2012, dated 2014).
In brackets after ≈: the same amount, converted by molar mass. Read-outs that look alike come from different tables or passages of the source.

Assays:
Assay type in all cases: cell-based
[1] = system: P. aeruginosa; test: Biofilm growth assay (spreading biofilm on semi-solid agar); set-up: P. aeruginosa (n=10): unit not given here; settings: for P. aeruginosa (n=10): Table 6, inhibitory concentration in the biofilm growth assay, n = number of isolates tested; for IC85: Pseudomonas aeruginosa
[2] = system: Burkholderia cepacia; test: Biofilm growth assay, multiple isolates; settings: Table 6; inhibitory concentration in the biofilm growth assay; n = number of isolates tested
Protocol: (§1) The biofilm growth assay was carried out to measure swarming or biofilm spreading on semi-solid agar media in round plates (for example, 100 × 15 mm), also referred to as Petri dishes. For E. coli, the plates contained LB medium with 0.6% agar and 0.5% glucose. P. aeruginosa plates were made with M8 agar supplemented with 0.2% glucose, 100 µM CaCl2, 1 mM MgSO4, and 0.5% Casamino acids. The agar plates of this assay consisted of 0.4% to 0.7% agar (Bacto or Noble agar), although other media may also be used as described in the literature and known to those skilled in the art. Test compounds at the desired concentration were added to the cooled, autoclaved media. Portions of the media were then poured into the plates (20 mL/plate), and the plates allowed to dry at room temperature for approximately 3 to 4 hours. Alternatively, however, plates may be dried in a laminar flow hood for approximately fifteen to twenty minutes. Overnight cultures were grown in a 37°C shaker in LB (E. coli) or TSB (P. aeruginosa). Plates were inoculated by placing 5 µL of the appropriate overnight culture in the centers of the plates. The plates then were incubated overnight at 37°C. The area of the zone of spreading bacteria was then measured and replicates are averaged. Percent inhibition was calculated as 100 × (area without compound - area with compound)/(area without compound). An active compound was considered that which reduces the area of the spreading biofilm compared to negative controls by greater than or equal to 85%. The values shown in Table 1 are the concentrations of compounds (µg/ml) tested in the biofilm growth assay that reduce the area of the spreading biofilm compared to negative controls by greater than or equal to 85% unless noted differently in Table 1. A > ("greater than" symbol) as used in Table 1 is well understood to those skilled in the art as an indication that the listed concentration was not effective at this concentration.
(§2) Table 6, below, lists the inhibitory concentrations of select compounds and antibiotics in the biofilm growth assay against various gram-negative bacterial biofilms. "N" means the number of isolates of bacteria tested. The biofilm growth assay procedure detailed in Example I, above, was followed. Burkholderia cepacia used media consisting of M9 salts, 100 µM CaCl2, 1 mM MgS04, and 0.7% citrate in 0.4% Noble agar. Salmonella spp. used media consisting of Nutrient Broth with 0.5% glucose in 0.5% Noble agar.

[3] = system: Salmonella spp.; test: Biofilm growth assay, multiple isolates; settings: Table 6; inhibitory concentration in the biofilm growth assay; n = number of isolates tested
Protocol: as §1, §2

[4] = system: E. coli; test: Biofilm growth assay (spreading biofilm on semi-solid agar); set-up: E. coli (n=10): unit: ug/mL; settings: for E. coli (n=10): Table 6, inhibitory concentration in the biofilm growth assay, n = number of isolates tested; for IC85: Escherichia coli
How it was run: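 Spreading (swarming) biofilm on semi-solid agar: E. coli on LB with 0.6% agar and 0.5% glucose; P. aeruginosa on M8 agar with 0.2% glucose, 100 µM CaCl2, 1 mM MgSO4, 0.5% Casamino acids. Compound in medium; 5 µL overnight culture spotted centrally, 37°C overnight. Value: concentration (µg/ml) giving ≥85% reduction in spread area versus negative control.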

[5] = Table 4, concentration that reduces the area of the spreading biofilm by >= 85%, read-out: E. coli
[6] = Table 4, concentration that reduces the area of the spreading biofilm by >= 85%, read-out: P. aeruginosa
[7] = read-out: P. aeruginosa (µg/ml)
[8] = Table 5, concentration that reduces the area of the spreading biofilm by >= 85%, read-out: E. coli
[9] = Table 5, concentration that reduces the area of the spreading biofilm by >= 85%, read-out: P. aeruginosa
[10] = Table 1, concentration that reduces the area of the spreading biofilm vs negative controls by >= 85%, > means not effective at this concentration, read-out: E. coli
[11] = Table 1, concentration that reduces the area of the spreading biofilm vs negative controls by >= 85%, > means not effective at this concentration, read-out: P. aeruginosa

CC[C@H]1OC(=O)[C@H](C)[C@@H](O[C@H]2C[C@@](C)(OC)[C@@H](O)[C@H](C)O2)[C@H](C)[C@@H](O[C@@H]2O[C@H](C)C[C@H](N(C)C)[C@H]2O)[C@](C)(O)C[C@@H](C)CN(C)[C@H](C)[C@@H](O)[C@]1(C)O [Azithromycin, azithromycin]
P. aeruginosa (n=10) [1]: > 16
inhibitory concentration [2]: > 16
inhibitory concentration in biofilm growth assay [3]: > 16

CC(C)(O/N=C(\C(=O)N[C@@H]1C(=O)N2C(C(=O)[O-])=C(C[n+]3ccccc3)CS[C@H]12)c1csc(N)n1)C(=O)O [Ceftazidime, ceftazidime, reference compound]
E. coli (n=10) [4]: 0.25
P. aeruginosa (n=10) [1]: 4
inhibitory concentration [2]: > 8
inhibitory concentration in biofilm growth assay [3]: 0.5

CN(C)CCc1c([C@]23CCC(C)(C)CC2C2=CCC4[C@@]5(C)Cc6c(n[nH]c6N)C(C)(C)C5CC[C@@]4(C)[C@]2(C)CC3)n[nH]c1O (stereo partly drawn) [Compound 85, 3-((4aS,6aS,6bR,13aR)-12-Amino-2,2,6a,6b,9,9,13a-heptamethyl-2,3,4,4a,5,6,6a,6b,7,8,8a,9,11,13,13a,13b,14,15b-octadecahydro-1H-chryseno[1,2-f]indazol-4a-yl)-4-(2-(dimethylamino)ethyl)-1H-pyrazol-5-ol]
IC85 [4, 5]: 1 µg/mL (≈ 1.66 µM)
IC85 [1, 6]: 0.5 µg/mL (≈ 0.829 µM)

CNCCc1c([C@]23CCC(C)(C)CC2C2=CCC4[C@@]5(C)Cc6c(n[nH]c6N)C(C)(C)C5CC[C@@]4(C)[C@]2(C)CC3)n[nH]c1O (stereo partly drawn) [Compound 86, 3-((4aS,6aS,6bR,13aR)-12-Amino-2,2,6a,6b,9,9,13a-heptamethyl-2,3,4,4a,5,6,6a,6b,7,8,8a,9,11,13,13a,13b,14,15b-octadecahydro-1H-chryseno[1,2-f]indazol-4a-yl)-4-(2-(methylamino)ethyl)-1H-pyrazol-5-ol]
IC85 [4, 5]: 2 µg/mL (≈ 3.4 µM)
IC85 [1, 6]: 0.5 µg/mL (≈ 0.849 µM)

CC1(C)CC[C@]2(c3n[nH]c(O)c3CCNC(N)=O)CC[C@]3(C)C(=CCC4[C@@]5(C)Cc6c(n[nH]c6N)C(C)(C)C5CC[C@]43C)C2C1 (stereo partly drawn) [Compound 87, 1-(2-(3-((4aS,6aS,6bR,13aR)-12-Amino-2,2,6a,6b,9,9,13a-heptamethyl-2,3,4,4a,5,6,6a,6b,7,8,8a,9,11,13,13a,13b,14,15b-octadecahydro-1H-chryseno[1,2-f]indazol-4a-yl)-5-hydroxy-1H-pyrazol-4-yl)ethyl)urea]
IC85 [4, 5]: 1 µg/mL (≈ 1.62 µM)
IC85 [1, 6]: 0.5 µg/mL (≈ 0.809 µM)

CC1(C)CC[C@]2(c3n[nH]c(O)c3N3CCOCC3)CC[C@]3(C)C(=CCC4[C@@]5(C)Cc6c(n[nH]c6N)C(C)(C)C5CC[C@]43C)C2C1 (stereo partly drawn) [Compound 88, 3-((4aS,6aS,6bR,13aR)-12-Amino-2,2,6a,6b,9,9,13a-heptamethyl-2,3,4,4a,5,6,6a,6b,7,8,8a,9,11,13,13a,13b,14,15b-octadecahydro-1H-chryseno[1,2-f]indazol-4a-yl)-4-morpholino-1H-pyrazol-5-ol]
IC85 [4, 5]: 0.5 µg/mL (≈ 0.811 µM)
IC85 [1, 6]: 0.25 µg/mL (≈ 0.405 µM)

CN1CCN(c2c([C@]34CCC(C)(C)CC3C3=CCC5[C@@]6(C)Cc7c(n[nH]c7N)C(C)(C)C6CC[C@@]5(C)[C@]3(C)CC4)n[nH]c2O)CC1 (stereo partly drawn) [Compound 89, 3-((4aS,6aS,6bR,13aR)-12-Amino-2,2,6a,6b,9,9,13a-heptamethyl-2,3,4,4a,5,6,6a,6b,7,8,8a,9,11,13,13a,13b,14,15b-octadecahydro-1H-chryseno[1,2-f]indazol-4a-yl)-4-(4-methylpiperazin-1-yl)-1H-pyrazol-5-ol]
IC85 ([4]; read-out: E. coli (µg/ml)): 1 µg/mL (≈ 1.59 µM)
IC85 [1, 7]: 1 µg/mL (≈ 1.59 µM)

CC1(C)CC[C@]2(c3n[nH]c(O)c3N3CCNCC3)CC[C@]3(C)C(=CCC4[C@@]5(C)Cc6c(n[nH]c6N)C(C)(C)C5CC[C@]43C)C2C1 (stereo partly drawn) [Compound 90, 3-((4aS,6aS,6bR,13aR)-12-Amino-2,2,6a,6b,9,9,13a-heptamethyl-2,3,4,4a,5,6,6a,6b,7,8,8a,9,11,13,13a,13b,14,15b-octadecahydro-1H-chryseno[1,2-f]indazol-4a-yl)-4-(piperazin-1-yl)-1H-pyrazol-5-ol]
IC85 ([4]; read-out: E. coli (µg/ml)): 1 µg/mL (≈ 1.62 µM)
IC85 [1, 7]: 0.5 µg/mL (≈ 0.812 µM)

CC1(C)CC[C@]2(C(=O)Sc3nnc(N)[nH]3)CC[C@]3(C)C(=C(c4cccnc4)CC4[C@@]5(C)Cc6c(n[nH]c6N)C(C)(C)[C@@H]5CC[C@]43C)[C@@H]2C1 (stereo partly drawn) [Compound 91, (4aS,6aS,6bR,8aR,13aR,15bS)-S-5-Amino-4H-1,2,4-triazol-3-yl 12-amino-2,2,6a,6b,9,9,13a-heptamethyl-15-(pyridin-3-yl)-2,3,4,4a,5,6,6a,6b,7,8,8a,9,11,13,13a,13b,14,15b-octadecahydro-1H-chryseno[1,2-f]indazole-4a-carbothioate]
IC85 [4, 8]: 1 µg/mL (≈ 1.49 µM)
IC85 [1, 9]: 1 µg/mL (≈ 1.49 µM)

CC1(C)CC[C@]2(c3n[nH]c(O)c3CCN)CC[C@]3(C)C(=C(c4ccoc4CN4CCOCC4)CC4[C@@]5(C)Cc6c(n[nH]c6N)C(C)(C)[C@@H]5CC[C@]43C)[C@@H]2C1 (stereo partly drawn) [Compound 92, 3-((4aS,6aS,6bR,8aR,13aR,15bS)-12-Amino-2,2,6a,6b,9,9,13a-heptamethyl-15-(2-(morpholinomethyl)furan-3-yl)-2,3,4,4a,5,6,6a,6b,7,8,8a,9,11,13,13a,13b,14,15b-octadecahydro-1H-chryseno[1,2-f]indazol-4a-yl)-4-(2-aminoethyl)-1H-pyrazol-5-ol]
IC85 [4, 8]: 2 µg/mL (≈ 2.7 µM)
IC85 [1, 9]: 0.5 µg/mL (≈ 0.676 µM)

CC1(C)CC[C@]2(C(=O)O)CC[C@]3(C)C(=CCC4[C@@]5(C)Cc6c[nH]nc6C(C)(C)C5CC[C@]43C)C2C1 (some centres unmarked) [D]
IC85 [4, 10]: 4 µg/mL (≈ 8.36 µM)
IC85 [1, 11]: 1 µg/mL (≈ 2.09 µM)

Cn1cc2c(n1)C(C)(C)C1CC[C@]3(C)C(CC=C4C5CC(C)(C)CC[C@]5(C(=O)O)CC[C@]43C)[C@@]1(C)C2 (some centres unmarked) [E]
IC85 [4, 10]: > 16 µg/mL
IC85 [1, 11]: 2 µg/mL (≈ 4.06 µM)

CC1(C)CC[C@]2(C(=O)O)CC[C@]3(C)C(=CCC4[C@@]5(C)Cc6c(n[nH]c6Br)C(C)(C)C5CC[C@]43C)C2C1 (some centres unmarked) [H]
IC85 [4, 10]: > 8 µg/mL
IC85 [1, 11]: 8 µg/mL (≈ 14.3 µM)

CC1(C)CC[C@]2(C(=O)O)CC[C@]3(C)C(=CC[C@@H]4[C@@]5(C)Cc6c(noc6N)C(C)(C)[C@@H]5CC[C@]43C)[C@@H]2C1 [K]
IC85 [4, 10]: > 8 µg/mL
IC85 [1, 11]: > 8 µg/mL

CC1(C)CC[C@]2(C(=O)O)CC[C@]3(C)[C@H](C(=O)C=C4[C@@]5(C)C=C(C#N)C(=O)C(C)(C)[C@@H]5CC[C@]43C)[C@@H]2C1 [L]
IC85 [4, 10]: > 16 µg/mL
IC85 [1, 11]: > 16 µg/mL

C=C(C)[C@@H]1CC[C@]2(C)CC[C@]3(C)[C@H](CC[C@@H]4[C@@]5(C)CC[C@H](O)C(C)(C)[C@@H]5CC[C@]43C)[C@@H]12 [Lupeol, reference compound]
IC85 [4, 10]: > 8 µg/mL
IC85 [1, 11]: > 16 µg/mL

COC(=O)[C@]12CCC(C)(C)CC1C1=CCC3[C@@]4(C)CC[C@H](O)C(C)(C)C4CC[C@@]3(C)[C@]1(C)CC2 (some centres unmarked) [Oleanolic acid methyl ester, reference compound]
IC85 [4, 10]: > 16 µg/mL
IC85 [1, 11]: > 16 µg/mL

CC1(C)CC[C@]2(C(=O)O)CC[C@]3(C)C(=CC[C@@H]4[C@@]5(C)CC[C@H](O)C(C)(C)[C@@H]5CC[C@]43C)[C@@H]2C1 [Oleanolic acid, reference compound]
IC85 [4, 10]: > 8 µg/mL
E. coli (n=10) [4]: 16
IC85 [1, 11]: 4 µg/mL (≈ 8.76 µM)
P. aeruginosa (n=10) [1]: 8
inhibitory concentration [2]: 0.5
inhibitory concentration in biofilm growth assay [3]: > 64

C[C@H]1[C@H](C)CC[C@]2(C(=O)O)CC[C@]3(C)C(=CC[C@@H]4[C@@]5(C)CC[C@H](O)C(C)(C)[C@@H]5CC[C@]43C)[C@H]12 [Ursolic acid, reference compound]
IC85 [4, 10]: 8 µg/mL (≈ 17.5 µM)
IC85 [1, 11]: 8 µg/mL (≈ 17.5 µM)

C[C@H]1[C@H](C)CC[C@]2(CO)CC[C@]3(C)C(=CC[C@@H]4[C@@]5(C)CC[C@H](O)C(C)(C)[C@@H]5CC[C@]43C)[C@H]12 [Uvaol, reference compound]
IC85 [4, 10]: > 8 µg/mL
IC85 [1, 11]: > 128 µg/mL
